Experiment [1] has as its system mice. As to the kind of experiment: Elevated plus maze test. The experiment is classed as in vivo, Balb/c or Swiss mice. The note with it: oral, 1 hour before the test, all doses tested, recorded over 8 minutes, versus control. An excerpt:
This test was validated in the rat by Pellow in 1986 and in the mouse by Lister in 1987. It is based on an aversion to open spaces: the open arms elicit anxiety in the animals while the closed arms represent safety. By recording the frequency of entry into each arm, this test evaluates the anxiolytic effect of a molecule in comparison with a reference compound such as buspirone.
Ten to eleven-week old Balb/c or Swiss mice were used for the test. Mice were randomly divided into a control group (treated with the vehicle) and other groups treated with the test compounds.
The test apparatus was a PVC maze with a plexiglass lid, divided into four equivalent exploration arms (45×10 cm), all interconnected by a small platform (10×10 cm). The apparatus was placed 66 crn above the floor. Two arms were opened and the other two closed with a wall (height: 30 cm).
After administration, the mouse was placed on the platform opposite the closed arm. The number of entries and the time spent in each open arm were recorded over 8 minutes.
The treatment was administered 1 hour before the test. The compounds were given orally at different doses. N=10; *** p<0.005 and **** p<0.001 (versus control; Dunnett test).

The target in the next experiment is T1, PDE2 (Bos taurus, UniProt P14099).
T1 construct: PDE2 was prepared from bovine endothelial cells by the same methods; endogenous in cells; host or cells: bovine endothelial cells
T1 sequence (P14099 1-921): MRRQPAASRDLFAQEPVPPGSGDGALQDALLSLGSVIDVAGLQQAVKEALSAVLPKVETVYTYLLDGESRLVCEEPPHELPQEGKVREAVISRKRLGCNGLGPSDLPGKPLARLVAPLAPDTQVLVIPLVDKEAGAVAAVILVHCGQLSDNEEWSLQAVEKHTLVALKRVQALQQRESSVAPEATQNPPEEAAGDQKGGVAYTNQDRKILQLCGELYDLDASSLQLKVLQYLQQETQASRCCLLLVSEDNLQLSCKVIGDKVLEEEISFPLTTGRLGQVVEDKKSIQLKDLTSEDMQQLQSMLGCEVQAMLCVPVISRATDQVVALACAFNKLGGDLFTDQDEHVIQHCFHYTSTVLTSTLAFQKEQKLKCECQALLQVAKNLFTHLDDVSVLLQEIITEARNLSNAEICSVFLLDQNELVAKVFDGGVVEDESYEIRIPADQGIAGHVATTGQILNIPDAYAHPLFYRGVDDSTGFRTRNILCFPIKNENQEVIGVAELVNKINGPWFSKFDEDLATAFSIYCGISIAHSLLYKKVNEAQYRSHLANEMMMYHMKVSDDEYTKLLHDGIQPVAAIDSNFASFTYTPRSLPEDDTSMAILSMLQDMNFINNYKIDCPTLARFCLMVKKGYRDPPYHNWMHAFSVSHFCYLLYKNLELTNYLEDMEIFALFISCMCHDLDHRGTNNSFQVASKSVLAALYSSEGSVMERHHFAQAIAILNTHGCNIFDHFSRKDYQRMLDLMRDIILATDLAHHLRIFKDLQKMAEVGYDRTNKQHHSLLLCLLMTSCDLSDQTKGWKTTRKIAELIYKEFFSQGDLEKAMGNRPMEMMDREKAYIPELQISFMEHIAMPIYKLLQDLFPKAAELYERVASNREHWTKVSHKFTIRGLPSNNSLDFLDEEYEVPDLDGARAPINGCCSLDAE
The experiment in a line: Inhibition of PDE2, radioenzymatic phosphodiesterase assay. The experiment is classed as biochemical, bovine.

The subject of experiment [2] is mice. The experiment in a line: Swim test. In kind it is in vivo, Wistar rats or Swiss mice. The note with it: 3 and 30 mg/kg, 20 minutes before the test, versus control group and 0.3 mg/kg group. The method, then: This test is based on the induction of alternative behavior in rodents subjected to an acute stress. In this model, the rat or mouse placed in a water-filled cylinder adopts a particular state of immobility. Onset of said immobility is delayed by antidepressants administered acutely or in repeated doses.
Wistar rats or Swiss mice were used. Animals were isolated for one week with a reverse light/dark cycle, then placed in the water-filled cylinder for 6 minutes. The total immobility time was recorded during the last 4 minutes. The treatment was administered 20 minutes before the test. Four groups were used to test three different doses: one control group treated with the vehicle, and one group for the three doses.
N=10; *** p<0.005 (Dunnett test).

The IC50 is the point on the concentration scale where inhibition reaches its midpoint. The low end stands for higher potency, the high end for lower potency. With `COc1cc2c(cc1OC)N(C)C(=O)CN=C2c1cccc(C(N)=O)c1` [Compound 5a, 3-(7,8-dimethoxy-1-methyl-2-oxo-2,3-dihydro-1H-1,4-benzodiazepin-5-yl)-benzamide], in the experiment on mice [1], the “percentage of time spent in the open arms” value is recorded as “spent more time in the open arms”. This compound returned an IC50 against PDE2 of 1500 nM. Moreover, in the experiment with mice [2], the total immobility time entry is listed as “shorter immobility time”.
